# Measurements from patent US9877957B2, “Tetrahydroisoquinoline derivatives useful as inhibitors of diacylglyceride O-acyltransferase 2” (Merck Sharp & Dohme Corp., priority 2014, dated 2018).
# pIC50: −log10 of the molar value.
# Molecular target: hDGAT2 (Homo sapiens (Human), UniProt Q96PD7)
# Test: DGAT2 Enzymatic Activity Assay (triolein formation, LC/MS/MS)
# Assay type: biochemical
# Conditions: Sf-9 membrane prep expressing hDGAT2; 25 μM diolein, 10 μM oleoyl-CoA; room temperature; read-out: IC50 values for inhibition of DGAT2
# Protocol: In Vitro DGAT2 ASSAYS and Determination of IC50 Values for DGAT2 Inhibitors
# Insect Cell Expression and Membrane Preparation
# Sf-9 insect cells were maintained in Grace's insect cell culture medium with 10% heated-inactivated fetal bovine serum, 1% Pluronic F-68 and 0.14 μg/ml Kanamycine sulfate in Erlenmeyer flasks at 28° C. in a shaker incubator. After infection with untagged hDGAT2 baculovirus at multiplicity of infection (MOI) 0.1 for 48 hours, cells were harvested. Cell pellets were suspended in buffer containing 10 mM Tris-HCl (pH 7.5), 1 mM EDTA (pH 8.0), 250 mM sucrose and Complete Protease Inhibitor Cocktail (Roche Diagnostics Corp., Indianapolis, Ill.), and sonicated on ice. Membrane fractions were isolated by ultracentrifugation (100,000× g pellet), resuspended in the same buffer, and frozen (−80° C.) for later use. The protein concentration was determined with the BCA Protein Assay kit (Pierce Biotechnology Inc., Rockford, Ill.). Expression of protein levels was analyzed by immunoblotting with goat polyclonal DGAT2 antibody C-15 and donkey anti-goat IgG HRP (Santa Cruz Biotechnology, Inc., Santa Cruz, Calif.) followed by detection with ECL reagent (GE Healthcare, Piscataway, N.J.).
# LC/MS/MS analyses were performed using Thermal Fisher's LX4-TSQ Vantage system. This system consists of an Agilent binary high-performance liquid chromatography (HPLC) pumps and a TSQ Vantage triple quadrupole MS/MS instrument. For each sample, 2 μL samples from the top organic layer of in-plate liquid-liquid extraction were injected onto a Thermo Betabasic C4 column (2.1 mm×20 mm, 5 μm particle size). The samples were then eluted using the following conditions; mobile phase: methanol/water with 0.1% ammonium format=92/8 (v/v), flow rate: 1 mL/min, temperature: 25° C. Data was acquired in positive mode using a heated electrospray ionization (HESI) interface. The operational parameters for the TSQ Vantage MS/MS instrument were a spray voltage of 3000 V, capillary temperature of 280° C., vaporizer temperature 400° C., shealth gas 60 arbitrary unit, Aux gas 40 arbitrary units, S-lens 113 and collision gas 0.16 Pascals. […] (SRM) chromatograms of triolein (Q1: 902.9>Q3:602.3) and internal standard (Q1: 902.9>Q3:602.3) were collected for 40 sec. The peak area was integrated by Xcalibur Quan software. The ratio between the triolein generated in the reaction and spiked in internal standard were used to generate percentage inhibition and IC50 values. Compound percentage inhibition was calculated by the following formula: Inhibition %=1−[(compound response−low control)/(high control−low control)]×100%. Potent compounds were titrated and IC50 were calculated by 4 parameter sigmoidal curve fitting formula.
# DGAT2 Enzymatic Activity Assay
# DGAT2 activity was determined by measuring the amount of enzymatic product triolein (1,2,3-Tri(cis-9-octadecenoyl)glycerol) using the membrane prep mentioned above. The assay was carried out in deep well 384 plates in a final volume of 40 μL at room temperature. The assay mixture contained the following: assay buffer (100 mM Tris·Cl, pH 7.0, 20 mM MgCl2, 5% ethanol), 25 μM of diolein, 10 μM of oleoyl-CoA and 10 ng/μL of DGAT2 membrane.
# Sequence of hDGAT2 (Q96PD7 whole entry): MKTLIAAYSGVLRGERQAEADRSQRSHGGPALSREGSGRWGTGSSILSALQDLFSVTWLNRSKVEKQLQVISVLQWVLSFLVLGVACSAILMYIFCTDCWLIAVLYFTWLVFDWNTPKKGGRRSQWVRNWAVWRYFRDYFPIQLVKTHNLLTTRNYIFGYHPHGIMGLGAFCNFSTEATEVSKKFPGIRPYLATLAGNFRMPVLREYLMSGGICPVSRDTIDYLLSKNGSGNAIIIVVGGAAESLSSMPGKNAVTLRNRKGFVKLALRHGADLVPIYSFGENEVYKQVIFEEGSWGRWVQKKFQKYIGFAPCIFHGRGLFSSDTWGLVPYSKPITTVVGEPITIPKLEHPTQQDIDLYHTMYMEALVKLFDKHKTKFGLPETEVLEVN
row,Structure (SMILES),pIC50
1,"Cn1c(CCNC(=O)c2ccc(-c3cccc(C(F)(F)F)c3)c3c2CN(C(=O)NC(C)(C)C)CC3)nc2ccccc21 [Example 20, N^2-(tert-butyl)-N^8-(2-(1-methyl-1H-benzo[d]imidazol-2-yl)ethyl)-5-(3-(trifluoromethyl)phenyl)-3,4-dihydroisoquinoline-2,8(1H)-dicarboxamide]",6.69
2,"CC(C)(C)NC(=O)N1CCc2c(-c3cccc(OC(F)(F)F)c3)ccc(C(=O)NCc3nccc4ccccc34)c2C1 [Example 22, N^2-(tert-butyl)-N^8-(isoquinolin-1-ylmethyl)-5-(3-(trifluoromethoxy)phenyl)-3,4-dihydroisoquinoline-2,8(1H)-dicarboxamide]",6.63
3,"CC(C)(C)NC(=O)N1CCc2c(-c3cccc(C(F)(F)F)c3)ccc(C(=O)NCCc3cn4ccccc4n3)c2C1 [Example 23, N^2-(tert-butyl)-N^8-(2-(imidazo[1,2-a]pyridin-2-yl)ethyl)-5-(3-(trifluoromethyl)phenyl)-3,4-dihydroisoquinoline-2,8(1H)-dicarboxamide]",6.61
4,"CC(C)(C)NC(=O)N1CCc2c(-c3cccc(C(F)(F)F)c3)ccc(C(=O)NCc3nccc4cccnc34)c2C1 [Example 24, N^8-((1,7-naphthyridin-8-yl)methyl)-N^2-(tert-butyl)-5-(3-(trifluoromethyl)phenyl)-3,4-dihydroisoquinoline-2,8(1H)-dicarboxamide]",6.58
5,"Cc1nn2cc(CCNC(=O)c3ccc(-c4cccc(C(F)(F)F)c4)c4c3CN(C(=O)NC(C)(C)C)CC4)nc2s1 [Example 25, N^2-(tert-butyl)-N^8-(2-(2-methylimidazo[2,1-b][1,3,4]thiadiazol-6-yl)ethyl)-5-(3-(trifluoromethyl)phenyl)-3,4-dihydroisoquinoline-2,8(1H)-dicarboxamide]",6.57
6,"CC(C)(C)NC(=O)N1CCc2c(-c3cccc(C(F)(F)F)c3)ccc(C(=O)NCc3ccnc4ccccc34)c2C1 [Example 26, N^2-(tert-butyl)-N^8-(quinolin-4-ylmethyl)-5-(3-(trifluoromethyl)phenyl)-3,4-dihydroisoquinoline-2,8(1H)-dicarboxamide]",6.54
7,"CC(C)(C)NC(=O)N1CCc2c(-c3cccc(C(F)(F)F)c3)ccc(C(=O)NCc3conc3C#N)c2C1 [Example 27, N^2-(tert-butyl)-N^8-((3-cyanoisoxazol-4-yl)methyl)-5-(3-(trifluoromethyl)phenyl)-3,4-dihydroisoquinoline-2,8(1H)-dicarboxamide]",6.50
8,"CC(C)(C)NC(=O)N1CCc2c(-c3cccc(C(F)(F)F)c3)ccc(C(=O)NCCc3cscn3)c2C1 [Example 29, N^2-(tert-butyl)-N^8-(2-(thiazol-4-yl)ethyl)-5-(3-(trifluoromethyl)phenyl)-3,4-dihydroisoquinoline-2,8(1H)-dicarboxamide]",6.48
9,"CC(C)(C)NC(=O)N1CCc2c(-c3cccc(C(F)(F)F)c3)ccc(C(=O)NCc3cnn4ccccc34)c2C1 [Example 30, N^2-(tert-butyl)-N^8-(pyrazolo[1,5-a]pyridin-3-ylmethyl)-5-(3-(trifluoromethyl)phenyl)-3,4-dihydroisoquinoline-2,8(1H)-dicarboxamide]",6.45
10,"Cc1cc(C)n(CCNC(=O)c2ccc(-c3cccc(C(F)(F)F)c3)c3c2CN(C(=O)NC(C)(C)C)CC3)n1 [Example 31, N^2-(tert-butyl)-N^8-(2-(3,5-dimethyl-1H-pyrazol-1-yl)ethyl)-5-(3-(trifluoromethyl)phenyl)-3,4-dihydroisoquinoline-2,8(1H)-dicarboxamide]",6.30
11,"Cc1sc(-c2ccccc2)nc1CNC(=O)c1ccc(-c2cccc(C(F)(F)F)c2)c2c1CN(C(=O)NC(C)(C)C)CC2 [Example 32, N^2-(tert-butyl)-N^8-((5-methyl-2-phenylthiazol-4-yl)methyl)-5-(3-(trifluoromethyl)phenyl)-3,4-dihydroisoquinoline-2,8(1H)-dicarboxamide]",6.27
12,"CC(C)(C)NC(=O)N1CCc2c(-c3cccc(C(F)(F)F)c3)ccc(C(=O)NCCn3nnc4ccccc43)c2C1 [Example 34, N^8-(2-(1H-benzo[d][1,2,3]triazol-1-yl)ethyl)-N^2-(tert-butyl)-5-(3-(trifluoromethyl)phenyl)-3,4-dihydroisoquinoline-2,8(1H)-dicarboxamide]",6.18
13,"CC(C)(C)NC(=O)N1CCc2c(-c3cccc(C(F)(F)F)c3)ccc(C(=O)NCc3n[nH]c4c3CCC4)c2C1 [Example 35, N^2-(tert-butyl)-N^8-((1,4,5,6-tetrahydrocyclopenta[c]pyrazol-3-yl)methyl)-5-(3-(trifluoromethyl)phenyl)-3,4-dihydroisoquinoline-2,8(1H)-dicarboxamide]",6.14
14,"CC(C)(C)NC(=O)N1CCc2c(-c3cccc(C(F)(F)F)c3)ccc(C(=O)NCC(c3ccccn3)N3CCOCC3)c2C1 (stereo not shown) [Example 36, N^2-(tert-butyl)-N^8-(2-morpholino-2-(pyridin-2-yl)ethyl)-5-(3-(trifluoromethyl)phenyl)-3,4-dihydroisoquinoline-2,8(1H)-dicarboxamide]",6.13
15,"CC(C)(C)NC(=O)N1CCc2c(-c3cccc(C(F)(F)F)c3)ccc(C(=O)NCCn3nncc3-c3ccccc3)c2C1 [Example 37, N^2-(tert-butyl)-N^8-(2-(5-phenyl-1H-1,2,3-triazol-1-yl)ethyl)-5-(3-(trifluoromethyl)phenyl)-3,4-dihydroisoquinoline-2,8(1H)-dicarboxamide]",6.13
16,"Cc1cc(C(F)(F)F)nc(CCNC(=O)c2ccc(-c3cccc(C(F)(F)F)c3)c3c2CN(C(=O)NC(C)(C)C)CC3)n1 [Example 38, N^2-(tert-butyl)-N^8-(2-(4-methyl-6-(trifluoromethyl)pyrimidin-2-yl)ethyl)-5-(3-(trifluoromethyl)phenyl)-3,4-dihydroisoquinoline-2,8(1H)-dicarboxamide]",6.07
17,"CC(C)(C)NC(=O)N1CCc2c(-c3cccc(C(F)(F)F)c3)ccc(C(=O)NCc3scnc3-c3ccccc3)c2C1 [Example 39, N^2-(tert-butyl)-N^8-((4-phenylthiazol-5-yl)methyl)-5-(3-(trifluoromethyl)phenyl)-3,4-dihydroisoquinoline-2,8(1H)-dicarboxamide]",6.05
18,"CC(C)(C)NC(=O)N1CCc2c(-c3cccc(C(F)(F)F)c3)ccc(C(=O)NCCc3ccccc3C(F)(F)F)c2C1 [Example 40, N^2-(tert-butyl)-N^8-(2-(trifluoromethyl)phenethyl)-5-(3-(trifluoromethyl)phenyl)-3,4-dihydroisoquinoline-2,8(1H)-dicarboxamide]",6.04
19,"Cc1nc(C)c(CNC(=O)c2ccc(-c3cccc(C(F)(F)F)c3)c3c2CN(C(=O)NC(C)(C)C)CC3)s1 [Example 41, N^2-(tert-butyl)-N^8-((2,4-dimethylthiazol-5-yl)methyl)-5-(3-(trifluoromethyl)phenyl)-3,4-dihydroisoquinoline-2,8(1H)-dicarboxamide]",6.04
20,"CC(C)(C)NC(=O)N1CCc2c(-c3cccc(C(F)(F)F)c3)ccc(C(=O)NCCc3ncn[nH]3)c2C1 [Example 42, N^8-(2-(1H-1,2,4-triazol-5-yl)ethyl)-N^2-(tert-butyl)-5-(3-(trifluoromethyl)phenyl)-3,4-dihydroisoquinoline-2,8(1H)-dicarboxamide]",6.02
21,"CC(C)(C)NC(=O)N1CCc2c(-c3cccc(C(F)(F)F)c3)ccc(C(=O)NCCN3CCCc4ccccc43)c2C1 [Example 43, N^2-(tert-butyl)-N^8-(2-(3,4-dihydroquinolin-1(2H)-yl)ethyl)-5-(3-(trifluoromethyl)phenyl)-3,4-dihydroisoquinoline-2,8(1H)-dicarboxamide]",5.94
22,"CC(CNC(=O)c1ccc(-c2cccc(C(F)(F)F)c2)c2c1CN(C(=O)NC(C)(C)C)CC2)n1cccn1 (stereo not shown) [Example 44, N^8-(2-(1H-pyrazol-1-yl)propyl)-N^2-(tert-butyl)-5-(3-(trifluoromethyl)phenyl)-3,4-dihydroisoquinoline-2,8(1H)-dicarboxamide]",5.92
